Laboratory results from patent publication US12077503B2, “Substituted cyclic amides and their use as herbicides” (FMC CORPORATION, priority 2015, dated 2024).

Columns and labels:
Format in all cases: in vivo
[1] = tested on: redroot pigweed (Amaranthus retroflexus); assay: Test G Pre-Emergence Protocol; details: Amaranthus retroflexus, pre-emergence, 312 h, evaluated after 13 days; for pest or weed control at 15.625 g/ha: 15.625 g ai/ha; for pest or weed control at 15.625 g/ha / pest or weed control at 250 g/ha: read-out: Pigweed, Redroot damage rating (100=total damage to plant; 0=no damage to plant); for pest or weed control at 62.5 g/ha: 62.5 g ai/ha, 100=total damage to plant, 0=no damage to plant, read-out: plant damage rating, Pigweed, Redroot; for pest or weed control at 250 g/ha: 250 g ai/ha
How it was run: (§1)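 Pots of seeds in standard soil were grown for one day in a glasshouse (24/16 °C day/night, 14 h light, 65% humidity), then sprayed with compound in acetone/water 50:50 with 0.5% Tween 20 at 15.625, 62.5 or 250 g/ha. Damage was scored after 13 days on a 0 (none) to 100 (total) scale.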

[2] = tested on: barnyardgrass (Echinochloa crus-galli); assay: Test G Pre-Emergence Protocol; details: Echinochloa crus-galli, pre-emergence, 312 h, evaluated after 13 days; for pest or weed control at 15.625 g/ha: 15.625 g ai/ha, read-out: Barnyard grass damage rating (100=total damage to plant; 0=no damage to plant); for pest or weed control at 62.5 g/ha: 62.5 g ai/ha, 100=total damage to plant, 0=no damage to plant, read-out: plant damage rating, Barnyardgrass; for pest or weed control at 250 g/ha: 250 g ai/ha, read-out: Barnyardgrass damage rating (100=total damage to plant; 0=no damage to plant)
How it was run: as §1

[3] = tested on: corn (Zea mays); assay: Test G Pre-Emergence Protocol; details: Zea mays, pre-emergence, 312 h, evaluated after 13 days; for plant injury at 15.625 g/ha: 15.625 g ai/ha; for plant injury at 15.625 g/ha / plant injury at 250 g/ha: read-out: Corn damage rating (100=total damage to plant; 0=no damage to plant); for plant injury at 62.5 g/ha: 62.5 g ai/ha, 100=total damage to plant, 0=no damage to plant, read-out: plant damage rating, Corn; for plant injury at 250 g/ha: 250 g ai/ha
How it was run: as §1

[4] = tested on: ivy-leaved morning glory (Ipomoea hederacea); assay: Test G Pre-Emergence Protocol; details: Ipomoea, pre-emergence, 312 h, evaluated after 13 days; for pest or weed control at 15.625 g/ha: 15.625 g ai/ha, read-out: Morning-glory, Ivy-leaved damage rating (100=total damage to plant; 0=no damage to plant); for pest or weed control at 62.5 g/ha: 62.5 g ai/ha, 100=total damage to plant, 0=no damage to plant, read-out: plant damage rating, Morningglory, Ivy-leaved; for pest or weed control at 250 g/ha: 250 g ai/ha, read-out: Morningglory, Ivy-leaved damage rating (100=total damage to plant; 0=no damage to plant)
How it was run: as §1

[5] = tested on: giant foxtail (Setaria faberi); assay: Test G Pre-Emergence Protocol; details: Setaria faberi, pre-emergence, 312 h, evaluated after 13 days; for pest or weed control at 15.625 g/ha: 15.625 g ai/ha; for pest or weed control at 15.625 g/ha / pest or weed control at 250 g/ha: read-out: Foxtail, Giant damage rating (100=total damage to plant; 0=no damage to plant); for pest or weed control at 62.5 g/ha: 62.5 g ai/ha, 100=total damage to plant, 0=no damage to plant, read-out: plant damage rating, Foxtail, Giant; for pest or weed control at 250 g/ha: 250 g ai/ha
How it was run: as §1

[6] = tested on: velvetleaf (Abutilon theophrasti); assay: Test G Pre-Emergence Protocol; details: Abutilon theophrasti, pre-emergence, 312 h, evaluated after 13 days; for pest or weed control at 15.625 g/ha: 15.625 g ai/ha; for pest or weed control at 15.625 g/ha / pest or weed control at 250 g/ha: read-out: Velvetleaf damage rating (100=total damage to plant; 0=no damage to plant); for pest or weed control at 62.5 g/ha: 62.5 g ai/ha, 100=total damage to plant, 0=no damage to plant, read-out: plant damage rating, Velvetleaf; for pest or weed control at 250 g/ha: 250 g ai/ha
How it was run: as §1

[7] = tested on: redroot pigweed (Amaranthus retroflexus); assay: Test G Post-Emergence Protocol; details: Amaranthus retroflexus, post-emergence, 312 h; for pest or weed control at 15.625 g/ha: 15.625 g ai/ha, evaluated after 13 days (100=total damage to plant; 0=no damage to plant), read-out: Pigweed, Redroot damage rating; for pest or weed control at 62.5 g/ha: 62.5 g ai/ha, read-out: Pigweed, Redroot damage rating (100=total damage to plant; 0=no damage to plant); for pest or weed control at 62.5 g/ha / pest or weed control at 250 g/ha: evaluated after 13 days; for pest or weed control at 250 g/ha: 250 g ai/ha, read-out: damage to plant, Pigweed, Redroot (100=total damage to plant; 0=no damage to plant)
How it was run: (§2)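 Pot-grown seedlings, 8 days old, raised in a glasshouse at 24/16 °C day/night with 14 h light and 65% humidity, were sprayed post-emergence with test compound in acetone/water (50:50) plus 0.5% Tween 20 at 15.625, 62.5 or 250 g/ha. Damage was scored visually 13 days later on a 0–100 scale (100 = total damage).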

[8] = tested on: barnyardgrass (Echinochloa crus-galli); assay: Test G Post-Emergence Protocol; details: Echinochloa crus-galli, post-emergence, 312 h; for pest or weed control at 15.625 g/ha: 15.625 g ai/ha, evaluated after 13 days (100=total damage to plant; 0=no damage to plant), read-out: Barnyardgrass damage rating; for pest or weed control at 62.5 g/ha: 62.5 g ai/ha, read-out: Barnyardgrass damage rating (100=total damage to plant; 0=no damage to plant); for pest or weed control at 62.5 g/ha / pest or weed control at 250 g/ha: evaluated after 13 days; for pest or weed control at 250 g/ha: 250 g ai/ha, read-out: damage to plant, Barnyardgrass (100=total damage to plant; 0=no damage to plant)
How it was run: as §2

[9] = tested on: corn (Zea mays); assay: Test G Post-Emergence Protocol; details: Zea mays, post-emergence, 312 h; for plant injury at 15.625 g/ha: 15.625 g ai/ha, evaluated after 13 days (100=total damage to plant; 0=no damage to plant), read-out: Corn damage rating; for plant injury at 62.5 g/ha: 62.5 g ai/ha, read-out: Corn damage rating (100=total damage to plant; 0=no damage to plant); for plant injury at 62.5 g/ha / plant injury at 250 g/ha: evaluated after 13 days; for plant injury at 250 g/ha: 250 g ai/ha, read-out: damage to plant, Corn (100=total damage to plant; 0=no damage to plant)
How it was run: as §2

[10] = tested on: ivy-leaved morning glory (Ipomoea hederacea); assay: Test G Post-Emergence Protocol; details: Ipomoea, post-emergence, 312 h; for pest or weed control at 15.625 g/ha: 15.625 g ai/ha, evaluated after 13 days (100=total damage to plant; 0=no damage to plant), read-out: Morningglory, Ivy-leaved damage rating; for pest or weed control at 62.5 g/ha: 62.5 g ai/ha, read-out: Morningglory, Ivy-leaved damage rating (100=total damage to plant; 0=no damage to plant); for pest or weed control at 62.5 g/ha / pest or weed control at 250 g/ha: evaluated after 13 days; for pest or weed control at 250 g/ha: 250 g ai/ha, read-out: damage to plant, Morningglory, Ivy-leaved (100=total damage to plant; 0=no damage to plant)
How it was run: as §2

[11] = tested on: giant foxtail (Setaria faberi); assay: Test G Post-Emergence Protocol; details: Setaria faberi, post-emergence, 312 h; for pest or weed control at 15.625 g/ha: 15.625 g ai/ha, evaluated after 13 days (100=total damage to plant; 0=no damage to plant), read-out: Foxtail, Giant damage rating; for pest or weed control at 62.5 g/ha: 62.5 g ai/ha, read-out: Foxtail, Giant damage rating (100=total damage to plant; 0=no damage to plant); for pest or weed control at 62.5 g/ha / pest or weed control at 250 g/ha: evaluated after 13 days; for pest or weed control at 250 g/ha: 250 g ai/ha, read-out: damage to plant, Foxtail, Giant (100=total damage to plant; 0=no damage to plant)
How it was run: as §2

[12] = tested on: velvetleaf (Abutilon theophrasti); assay: Test G Post-Emergence Protocol; details: Abutilon theophrasti, post-emergence, 312 h; for pest or weed control at 15.625 g/ha: 15.625 g ai/ha, evaluated after 13 days (100=total damage to plant; 0=no damage to plant), read-out: Velvetleaf damage rating; for pest or weed control at 62.5 g/ha: 62.5 g ai/ha, read-out: Velvetleaf damage rating (100=total damage to plant; 0=no damage to plant); for pest or weed control at 62.5 g/ha / pest or weed control at 250 g/ha: evaluated after 13 days; for pest or weed control at 250 g/ha: 250 g ai/ha, read-out: damage to plant, Velvetleaf (100=total damage to plant; 0=no damage to plant)
How it was run: as §2

| SMILES | pest or weed control at 15.625 g/ha [1] | pest or weed control at 62.5 g/ha [1] | pest or weed control at 250 g/ha [1] | pest or weed control at 15.625 g/ha [2] | pest or weed control at 62.5 g/ha [2] | pest or weed control at 250 g/ha [2] | plant injury at 15.625 g/ha [3] | plant injury at 62.5 g/ha [3] | plant injury at 250 g/ha [3] | pest or weed control at 15.625 g/ha [4] | pest or weed control at 62.5 g/ha [4] | pest or weed control at 250 g/ha [4] | pest or weed control at 15.625 g/ha [5] | pest or weed control at 62.5 g/ha [5] | pest or weed control at 250 g/ha [5] | pest or weed control at 15.625 g/ha [6] | pest or weed control at 62.5 g/ha [6] | pest or weed control at 250 g/ha [6] | pest or weed control at 15.625 g/ha [7] | pest or weed control at 62.5 g/ha [7] | also measured |
| --- | --- | --- | --- | --- | --- | --- | --- | --- | --- | --- | --- | --- | --- | --- | --- | --- | --- | --- | --- | --- | --- |
| Cc1cccc(NC(=O)[C@H]2C(=O)N(C)C[C@@H]2c2ccc(C(F)(F)F)cc2)c1C#N (racemic) [Compound 1413] | 0% | 20% | 20% | 0% | 20% | 80% | 0% | 0% | 0% | 0% | 0% | 0% | 0% | 60% | 90% | 0% | 0% | 0% | 0% | 10% | pest or weed control at 250 g/ha [7]: 20%; pest or weed control at 15.625 g/ha [8]: 20%; pest or weed control at 62.5 g/ha [8]: 50%; pest or weed control at 250 g/ha [8]: 60%; plant injury at 15.625 g/ha [9]: 0%; plant injury at 62.5 g/ha [9]: 0%; plant injury at 250 g/ha [9]: 0%; pest or weed control at 15.625 g/ha [10]: 0%; pest or weed control at 62.5 g/ha [10]: 0%; pest or weed control at 250 g/ha [10]: 0%; pest or weed control at 15.625 g/ha [11]: 40%; pest or weed control at 62.5 g/ha [11]: 70%; pest or weed control at 250 g/ha [11]: 70%; pest or weed control at 15.625 g/ha [12]: 0%; pest or weed control at 62.5 g/ha [12]: 0%; pest or weed control at 250 g/ha [12]: 10% |
| C#Cc1ccccc1NC(=O)[C@H]1C(=O)N(C)C[C@@H]1c1ccc(C(F)(F)F)cc1 (racemic) [Compound 1422] | 0% | 0% | 0% | 0% | 0% | 0% | 0% | 0% | 0% | 0% | 0% | 0% | 0% | 10% | 50% | 0% | 0% | 0% | 0% | 0% | pest or weed control at 250 g/ha [7]: 0%; pest or weed control at 15.625 g/ha [8]: 0%; pest or weed control at 62.5 g/ha [8]: 0%; pest or weed control at 250 g/ha [8]: 0%; plant injury at 15.625 g/ha [9]: 10%; plant injury at 62.5 g/ha [9]: 10%; plant injury at 250 g/ha [9]: 0%; pest or weed control at 15.625 g/ha [10]: 0%; pest or weed control at 62.5 g/ha [10]: 0%; pest or weed control at 250 g/ha [10]: 0%; pest or weed control at 15.625 g/ha [11]: 0%; pest or weed control at 62.5 g/ha [11]: 0%; pest or weed control at 250 g/ha [11]: 20%; pest or weed control at 15.625 g/ha [12]: 0%; pest or weed control at 62.5 g/ha [12]: 0%; pest or weed control at 250 g/ha [12]: 0% |
